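Each compound was tested at five concentrations against cells in 96-well plates for 48 hours. GI50 marks 50% less growth.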 Activity calls are given as the source filed them. No stated cut-off is given here; in the data, active = GI50 up to about 1.1 µM and inactive = higher.
Tests used:
Assay in all cases: NCI anticancer screen, dose series, 48 h
[1] = system: DMS-114
[2] = system: HOP-62
[3] = system: RXF 393
[4] = system: ACHN
[5] = system: OVCAR-3
[6] = system: SF-268
[7] = system: HCT-116
[8] = system: NCI-H226
[9] = system: MOLT-4
[10] = system: HL-60
[11] = system: UACC-257
[12] = system: U-251
[13] = system: SK-MEL-28
[14] = system: LXFL 529
[15] = system: NCI-H23
[16] = system: KM12
[17] = system: SF-295

Measured: GI50

Cc1nc(-n2nc(-c3ccccc3)cc2-c2ccccc2)sc1C(/C=C/c1ccc([N+](=O)[O-])cc1)=N/NC(=O)c1ccncc1
inactive: [1] 13.9 µM | [2] 12.8 µM | [3] 22.4 µM | [4] 23.6 µM | [5] 12.6 µM | [6] 20 µM | [7] 9.12 µM | [8] 17.9 µM | [9] 6.89 µM | [10] 11 µM | [11] 41.7 µM | [12] 27.7 µM | [13] 31.1 µM | [14] 12.7 µM | [15] 14.8 µM | [16] 4.06 µM | [17] 29 µM

CCc1cccc(C(C)C)c1NC(=O)CC1Sc2ccccc2NC1=O (stereo not drawn)
inactive: [1] 44.1 µM | [2] > 100 µM | [3] 41 µM | [4] 51.6 µM | [5] 56 µM | [6] > 100 µM | [7] 56.4 µM | [8] > 100 µM | [9] 32.4 µM | [10] 24 µM | [11] 43.8 µM | [12] 71 µM | [13] > 100 µM | [14] 43.5 µM | [15] 52.8 µM | [16] 54.8 µM | [17] 44.3 µM

C=C=C(C(=O)OC)[S+]([O-])c1ccccc1[N+](=O)[O-] (stereo not drawn)
inactive: [1] > 100 µM | [2] > 100 µM | [3] > 100 µM | [4] > 100 µM | [5] > 100 µM | [6] > 100 µM | [7] 89.9 µM | [8] > 100 µM | [9] > 100 µM | [10] 75.2 µM | [11] > 100 µM | [12] > 100 µM | [14] > 100 µM | [15] > 100 µM | [16] > 100 µM | [17] > 100 µM

C=CCNC(=O)N(CCCC(NC(C)=O)C(=O)NCc1ccccc1)Cc1ccccc1 (stereo not drawn)
inactive: [1] > 100 µM | [2] > 100 µM | [3] > 100 µM | [4] > 100 µM | [5] > 100 µM | [6] > 100 µM | [8] > 100 µM | [9] > 100 µM | [10] > 100 µM | [11] > 100 µM | [12] > 100 µM | [13] > 100 µM | [14] > 100 µM | [15] > 100 µM | [16] > 100 µM | [17] > 100 µM

N#CC(/C(=N/NC(=O)C(=O)NN)C(=O)NC12CC3CC(CC(C3)C1)C2)c1ccccc1 (stereo not drawn)
inactive: [1] > 100 µM | [2] > 100 µM | [3] > 100 µM | [4] > 100 µM | [5] > 100 µM | [6] > 100 µM | [7] > 100 µM | [8] > 100 µM | [9] > 100 µM | [10] > 100 µM | [11] > 100 µM | [12] > 100 µM | [13] > 100 µM | [14] > 100 µM | [15] > 100 µM | [16] > 100 µM | [17] > 100 µM

COc1ccc(OC(C)=O)c2c1CCC=CC2=O
inactive: [1] 19.1 µM | [2] 14.7 µM | [3] 9.16 µM | [4] 17.9 µM | [5] 15.8 µM | [6] > 10 µM | [7] 18.7 µM | [8] 18.8 µM | [9] 12.2 µM | [10] 2.47 µM | [11] 17.7 µM | [12] 18.3 µM | [13] 15 µM | [14] 9.57 µM | [15] 18.5 µM | [16] 3.4 µM | [17] 20.9 µM

COC1(OC)CC2C=C(S(=O)(=O)c3ccccc3)C1N(Cc1ccccc1)C2=O (stereo not drawn)
inactive: [1] 20.3 µM | [2] 97.7 µM | [3] 17.9 µM | [4] 41.3 µM | [5] 17.1 µM | [6] > 100 µM | [7] 13.4 µM | [8] 29.9 µM | [9] 23.2 µM | [10] 16.2 µM | [11] 22.6 µM | [12] 34.8 µM | [13] 31 µM | [14] 20.3 µM | [15] 15.2 µM | [16] 24.7 µM | [17] 50.9 µM

COc1ccc(/C=c2\sc3nnc(CCC(=O)Nc4cccc(C(F)(F)F)c4)n3c2=O)cc1
inactive: [1] > 100 µM | [2] > 100 µM | [3] 41.5 µM | [4] > 100 µM | [5] 39.8 µM | [6] 97.5 µM | [7] > 100 µM | [8] > 100 µM | [9] 4.56 µM | [10] > 47.9 µM | [11] > 100 µM | [12] > 94.2 µM | [13] > 74.3 µM | [14] > 87.1 µM | [15] > 100 µM | [16] > 75.9 µM | [17] > 100 µM

CCOc1ccccc1NC(=O)/C=C1\NC(=O)CS1
inactive: [1] > 100 µM | [2] > 100 µM | [3] > 100 µM | [5] > 100 µM | [6] > 100 µM | [7] > 100 µM | [8] > 100 µM | [9] > 100 µM | [10] > 100 µM | [12] > 100 µM | [13] > 100 µM | [14] > 100 µM | [15] > 100 µM | [16] > 100 µM | [17] > 100 µM

C[C@]12Cc3cn[nH]c3C(=O)C1CC[C@@H]1C2CC[C@@]2(C)C1CC[C@]2(C)O (stereo partly drawn)
inactive: [1] > 100 µM | [2] > 100 µM | [3] > 100 µM | [4] > 100 µM | [5] > 100 µM | [6] > 100 µM | [7] > 100 µM | [8] > 100 µM | [9] > 100 µM | [10] > 100 µM | [11] > 100 µM | [12] > 100 µM | [13] > 100 µM | [14] > 100 µM | [15] > 100 µM | [16] > 100 µM | [17] > 100 µM

O=c1[nH]c(Br)nc2c(N3CCCCC3)c[nH]c12
inactive: [1] > 100 µM | [2] > 100 µM | [3] > 100 µM | [4] > 100 µM | [5] > 100 µM | [6] > 100 µM | [7] > 100 µM | [8] > 100 µM | [9] 29.5 µM | [10] > 100 µM | [11] > 100 µM | [12] > 100 µM | [13] > 100 µM | [14] > 100 µM | [15] > 100 µM | [16] > 100 µM | [17] > 100 µM
